Patent EP4775219A1, “USE OF VIRUS 3C PROTEASE IN PREVENTION OR TREATMENT OF TUMOR” (Academy of Military Medical Sciences, priority 2023, dated 2025)

Assays:
[1] = biological target: 3C protein in U87 MG cells (Enterovirus A71, UniProt B9VUU3); assay type: cell-based, EV71 or Coxsackievirus A14
Protocol: (§1) Rupintrivir (AG7088) is an effective, selective and irreversible 3C protease inhibitor. U87 MG cells and A172 cells were seeded in white-walled clear-bottom 96-well plates at a density of 1.0×10^4 per well, and cultured at 37°C with 5% CO2 for 24 hours. Subsequently, EV-3C-mRNA was diluted with Opti-MEM to final concentrations of 998.4 ng/ml, 499.2 ng/ml, 249.6 ng/ml, 124.8 ng/ml, 62.4 ng/ml, 31.2 ng/ml, and 15.6 ng/ml, and transfected into cells with Lipo2000 liposomes. Compound AG7088 was serially diluted with 2% cell maintenance medium and then added to the 96-well plates to final concentrations of 10µM, 1µM and 0µM, respectively. After 48h, the supernatant was discarded, and the diluted Cell-Titer Glo® Luminescent Cell Viability assay solution was added. The mixture was shaken for 5min in the dark to lyse the cells, followed by standing for 3min. Finally, the luminescence value of each well was measured using a microplate reader. Cell viability (%) = average value of experimental group/average value of cell control group × 100 [formula]
(§2) Data analysis: The inhibition rate-concentration curve was fitted to a sigmoidal curve using Origin9.0 software to calculate the half-maximal effective concentration (EC50) of AG7088 against 3C-mRNA. The half-cytotoxic concentration (CC50) of the compound was calculated using the same method.

in vitro [2] = assay type: cell-based; details: human
Protocol: as §2

3C protein in A172 cells = 3C protein in A172 cells (Enterovirus A71, UniProt B9VUU3); experiment: AG7088 blocking the inhibition of cell viability by EV-3C-mRNA; assay type: cell-based, EV71 or Coxsackievirus A14; details: inhibition of the decrease in cell viability caused by 3C-mRNA transfection
Chain of 3C protein in A172 cells (B9VUU3 1549-1731, change not shown): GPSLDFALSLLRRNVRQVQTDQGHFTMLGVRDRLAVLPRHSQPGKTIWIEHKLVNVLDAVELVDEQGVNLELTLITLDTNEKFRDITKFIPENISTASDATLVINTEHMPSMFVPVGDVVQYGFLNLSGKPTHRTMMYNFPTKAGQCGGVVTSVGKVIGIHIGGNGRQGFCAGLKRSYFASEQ
Protocol: as §1, §2

in vitro [3] = assay type: cell-based; details: human; remark: listed apart in the source
Protocol: as §2

Chain of 3C protein in U87 MG cells (B9VUU3 1549-1731, change not shown): as above

With `CCOC(=O)/C=C/[C@H](C[C@@H]1CCNC1=O)NC(=O)[C@@H](CC(=O)[C@@H](NC(=O)c1cc(C)on1)C(C)C)Cc1ccc(F)cc1` [AG7088, Rupintrivir] the “Viability of U87 cells (%)” value ([1]; AG7088 1µM + EV-3C-mRNA 31.2 ng/ml, 48h) was 95.64±2%, the IC50 ([1]; inhibition of the decrease in cell viability caused by 3C-mRNA transfection, U87 MG cells) was 1.15 ± 0.19 µM and the CC50 (in vitro [2]) was over 100 µM. It also gave an IC50 (3C protein in A172 cells) of 0.439 ± 0.03 µM and a CC50 (in vitro [3]) of over 100 µM.
